Laboratory results from US20210155611A1, “THE SALTS OF A COMPOUND AND THE CRYSTALLINE FORMS THEREOF” (Flutchison Medipharma Limited, priority 2017, published 2021).
Converted amounts (≈) assume the structure as drawn. “Also recorded” adds a separate entry of the source.

How the values were obtained:
Format in all cases: physicochemical
[1] = Stability of Form I under high temperature, high humidity and illumination conditions; conditions: for Purity A %: HPLC
Procedure: Determination method: the test sample of Form I of compound of Formula A was placed on a culture dish, which was uncovered and placed in sealed clean containers. The containers were placed under a temperature of 60° C. and an illumination of 4500 lx±500 lx respectively for 10 days; or the containers were placed under a temperature of 25° C. and a relative humidity of 92.5%%±5% and under a temperature of 40° C. and a relative humidity of 75%±5% respectively for 2 weeks.
Then sampled and investigated for the purity (using HPLC analysis) and crystalline form (using X-ray powder diffraction analysis) of the sample.

Hygroscopicity of Form I = assay: Hygroscopicity of Form I
Procedure: Determination method: the test sample of Form I was weighed and placed on a culture dish, which was uncovered and placed in a sealed clean container with the relative humidity of 92.5%. Then the container was placed at room temperature for 10 days. Then sampled, weighed the sample after placed for 10 days, and compared with the weight of the sample before the test. Thereby the percentage of weight gain by hygroscopicity of the sample was calculated. The crystalline form was also investigated (using X-ray powder diffraction analysis).

[2] = Solubility test of Form I and free base in different dissolution media; conditions: for solubility at 24 h: thermodynamic from solid, saturated for 24 hours
Procedure: Determination method: excess amount of Form I sample of compound of Formula A and its free base (compound 4-ethyl-N-(4-((3-ethynylphenyl)amino)-7-methoxyquinazolin-6-yl) piperazine-1-carboxamide) were suspended in different dissolution media respectively, and saturated for 24 hours under shaking at constant temperature, then filtered. The filtrates were used for determining solubility of the samples. The buffers of different pH, simulated gastric fluid, and simulated intestinal fluid were prepared according to the US pharmacopeia (USP40-NF35).

[3] = aqueous buffer, pH 1.2 buffer, 25° C.
[4] = aqueous buffer, pH 2.1 buffer, 25° C.
[5] = aqueous buffer, pH 4.5 buffer, 25° C.
[6] = aqueous buffer, pH 6.8 buffer, 25° C.
[7] = aqueous buffer, pH 7.4 buffer, 25° C.
[8] = fassgf or other biorelevant, Simulated intestinal fluid (SIF), 20° C.
[9] = Simulated gastric fluid (SGF), 20° C.

In the case of `C#Cc1cccc(Nc2ncnc3cc(OC)c(NC(=O)N4CCN(CC)CC4)cc23)c1.O=C(O)CCC(=O)O` [Form I, 4-ethyl-N-(4-((3-ethynylphenyl)amino)-7-methoxyquinazolin-6-yl)piperazine-1-carboxamide succinate], the “Purity A %” value ([1]; 0 day (Table 1)) is reported as 99.37%, the “Purity A %” value ([1]; 0 day (Table 2)) is reported as 98.98% and the “Purity A %” value ([1]; 60° C., 10 days) is reported as 98.68%. The “Purity A %” value ([1]; 75 ± 5% RH/40° C., 2 weeks) was 99.08%, the “Purity A %” value ([1]; 92.5 ± 5% RH/25° C., 2 weeks) was 98.98% and the “Purity A %” value ([1]; 4500 lx ± 500 lx, 10 days) was 99.29%. For the same compound, the “Stability (chemical purity and crystalline form), conclusion in words” value ([1]; high temperature and illumination 10 days, high humidity 2 weeks) was “stable”, the “Crystal form after 10 days” value (Hygroscopicity of Form I; 92.5% RH, 25° C., 10 days, X-ray powder diffraction) was “not changed” and the “Weight gain after 10 days (%)” value (Hygroscopicity of Form I; 92.5% RH, 25° C., 10 days, succinate) was 0.01%. The “Hygroscopicity, conclusion in words” value (Hygroscopicity of Form I; high humidity condition for 10 days) was “non-hygroscopic”, the solubility at 24 h [2, 3] was 103000 µg/mL and the solubility at 24 h [2, 4] was 15500 µg/mL. It also gave a solubility at 24 h [2, 5] of 10000 µg/mL, a solubility at 24 h [2, 6] of 253 µg/mL and a solubility at 24 h [2, 7] of 46.1 µg/mL. For the same compound, the solubility at 24 h ([2]; aqueous buffer, pH 8.0 buffer, 25° C.) was 0.5 µg/mL, the solubility at 24 h [2, 8] was 253 µg/mL and the solubility at 24 h ([2]; Distilled water, 20° C.) was 803 µg/mL. The solubility at 24 h [2, 9] was 103000 µg/mL.
For `C#Cc1cccc(Nc2ncnc3cc(OC)c(NC(=O)N4CCN(CC)CC4)cc23)c1` [free base, 4-ethyl-N-(4-((3-ethynylphenyl)amino)-7-methoxyquinazolin-6-yl)piperazine-1-carboxamide], the solubility at 24 h [2, 3] was 38500 µg/mL (≈ 89400 µM), the solubility at 24 h [2, 4] was 5450 µg/mL (≈ 12700 µM) and the solubility at 24 h [2, 5] was 5.21 µg/mL (≈ 12.1 µM). It also gave a solubility at 24 h [2, 6] of 0.84 µg/mL (≈ 1.95 µM), a solubility at 24 h [2, 7] of 0.41 µg/mL (≈ 0.952 µM) and a solubility at 24 h [2, 8] of 0.84 µg/mL (≈ 1.95 µM). It also gave a solubility at 24 h ([2]; Distilled water, 20° C.) of 1 µg/mL (≈ 2.32 µM) and a solubility at 24 h [2, 9] of 38500 µg/mL (≈ 89400 µM).
With `C#Cc1cccc(Nc2ncnc3cc(OC)c(NC(=O)N4CCN(CC)CC4)cc23)c1.O=C(O)CCC(=O)O` [compound of Formula A, 4-ethyl-N-(4-((3-ethynylphenyl)amino)-7-methoxyquinazolin-6-yl)piperazine-1-carboxamide succinate] the “Solubility compared with that of the free base, in words” value ([2]; data of Table 4, succinate) was “significantly increased; also recorded: significantly higher”.
